# Calls of active or inactive are those of the source. No cut-off for these calls is given here.
# Experiments:
# Tyrosinase [1] = target: T1, Tyrosinase (Agaricus bisporus, UniProt O42713)
# T1 sequence (O42713 whole entry): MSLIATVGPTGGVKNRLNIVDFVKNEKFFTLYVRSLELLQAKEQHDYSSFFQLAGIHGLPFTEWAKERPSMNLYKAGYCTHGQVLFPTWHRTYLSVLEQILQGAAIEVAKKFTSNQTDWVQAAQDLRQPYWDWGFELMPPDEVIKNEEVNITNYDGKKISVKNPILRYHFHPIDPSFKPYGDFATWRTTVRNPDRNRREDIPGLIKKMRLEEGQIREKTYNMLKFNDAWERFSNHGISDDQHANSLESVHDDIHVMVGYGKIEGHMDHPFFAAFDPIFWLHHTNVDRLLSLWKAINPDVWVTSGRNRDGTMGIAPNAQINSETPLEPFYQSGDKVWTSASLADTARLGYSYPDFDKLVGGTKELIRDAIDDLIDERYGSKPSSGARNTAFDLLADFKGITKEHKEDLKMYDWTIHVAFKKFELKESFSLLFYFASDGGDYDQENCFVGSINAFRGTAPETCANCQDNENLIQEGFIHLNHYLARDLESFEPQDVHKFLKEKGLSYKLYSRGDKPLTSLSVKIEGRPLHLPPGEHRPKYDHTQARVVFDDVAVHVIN
# Tyrosinase [2] = target: T1, Tyrosinase; experiment: Inhibition of mushroom tyrosinase assessed as reduction in dopachrome formation using L-DOPA as substrate preincubated for 10 mins followed by substrate addition and further incubated for 20 mins by microplate reader assay
# B16-F10 = experiment: Cytotoxicity against mouse B16F10 cells assessed as effect on cell morphology at 20 to 60 ug/ml incubated for 24 hrs by fluorescent inverted microscopy analysis; assay type: cell-based; settings: b16-f10, 24 h
# [3] = Cytotoxicity against mouse B16F10 cells assessed as cell viability at 40 ug/ml incubated for 24 hrs by MTT assay relative to control; assay type: cell-based, B16-F10; settings: read-out: Activity
# [4] = target: T2, Tyrosinase (Mus musculus) (UniProt P11344); experiment: Inhibition of tyrosinase in mouse B16F10 cells assessed as transformation of L-DOPA into dopachrome measured after 24 hrs by microplate reader analysis; assay type: cell-based
# T2 sequence (whole entry): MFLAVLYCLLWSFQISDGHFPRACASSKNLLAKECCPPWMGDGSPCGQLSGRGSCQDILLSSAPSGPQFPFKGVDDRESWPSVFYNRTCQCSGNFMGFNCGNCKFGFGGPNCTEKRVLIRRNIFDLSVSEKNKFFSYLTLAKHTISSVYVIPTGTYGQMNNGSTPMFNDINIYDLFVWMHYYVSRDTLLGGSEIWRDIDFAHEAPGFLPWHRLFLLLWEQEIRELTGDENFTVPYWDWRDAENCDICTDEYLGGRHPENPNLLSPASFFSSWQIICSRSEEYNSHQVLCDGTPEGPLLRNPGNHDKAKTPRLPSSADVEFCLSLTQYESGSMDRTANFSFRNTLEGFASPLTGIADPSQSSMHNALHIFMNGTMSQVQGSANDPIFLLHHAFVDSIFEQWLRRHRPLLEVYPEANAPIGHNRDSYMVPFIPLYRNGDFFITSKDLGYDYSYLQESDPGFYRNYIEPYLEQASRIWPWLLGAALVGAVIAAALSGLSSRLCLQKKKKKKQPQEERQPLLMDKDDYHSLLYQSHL
# [5] = target: T2, Tyrosinase (Mus musculus); experiment: Inhibition of tyrosinase in mouse B16F10 cells assessed as alpha-MSH-stimulated melanogenesis measured as melanin content at 25 to 30 ug/ml measured after 24 hrs in presence of alpha-MSH by microplate reader analysis; assay type: cell-based
# [6] = Cytotoxicity against mouse B16F10 cells assessed as cell viability at 30 ug/ml incubated for 24 hrs by MTT assay relative to control; assay type: cell-based, B16-F10; settings: read-out: Activity
smiles,measurement,setting,value
COc1cccc(OC(=O)COC(=O)c2ccc(O)cc2O)c1,Ki,Tyrosinase [1],130 µM
same,IC50,Tyrosinase [2],23.8 µM
COc1cccc(OC(=O)COC(=O)c2ccc(O)cc2)c1,IC50,Tyrosinase [2],338 µM
COc1cccc(OC(=O)COC(=O)c2cc(O)cc(O)c2)c1,IC50,Tyrosinase [2],193 µM
COc1cccc(OC(=O)COC(=O)c2cccc(O)c2)c1,IC50,Tyrosinase [2],315 µM
COc1cccc(OC(=O)COC(=O)/C=C/c2ccc(O)cc2)c1,Activity,B16-F10,Non-Toxic
same,Ki,Tyrosinase [1],11 µM
same,"viability at 24 h, 40 ug/ml",[3],> 95%
same,inhibition,[4],Dose-dependent effect
same,inhibition,[5],Active
same,IC50,Tyrosinase [2],5.7 µM
same,"viability at 24 h, 30 ug/ml",[6],> 99%
COc1cccc(OC(=O)COC(=O)c2ccc(O)c(O)c2)c1,IC50,Tyrosinase [2],299 µM
O=C(/C=C/c1ccc(O)cc1)OCC(=O)Oc1ccc2ccc(=O)oc2c1,IC50,Tyrosinase [2],124 µM
COc1cccc(OC(=O)COC(=O)/C=C/c2ccccc2)c1,IC50,Tyrosinase [2],39.4 µM
COc1cccc(OC(=O)COC(=O)/C=C/c2ccccc2O)c1,IC50,Tyrosinase [2],173 µM
